Measurements reported in patent US20160130245A1, “6,8-SUBSTITUTED NARINGENIN DERIVATIVE AND USE THEREOF” (SUN YAT-SEN UNIVERSITY, priority 2012, published 2016).

Key:
[1] = test system: mice with cough induced from aqueous ammonia; assay: Cough relieving effect of singly administered compounds in mice with cough induced from aqueous ammonia; format: in vivo, male KM mice; conditions: example compounds 7.44 μmol/ml, codeine phosphate 0.47 μmol/ml; for Coughs: coughs counted in 3 min after 15 s atomized 25% aqueous ammonia, 1 hr after administration, intragastric gavage or intraperitoneal injection, 0.2 ml/10 g body weight, mean ± spread; for Cough relieving rate: relative to blank group (17.8 ± 5.4 coughs), same dosing as Coughs, 0.2 ml/10 g
Excerpt: II. Test on Cough Relieving Effect of Singly Administered Example Compounds of the Present Invention in Mice with Cough Induced from Aqueous Ammonia
1. Test animals: male KM mice (available from Guangdong Medical Laboratory Animal Center, Certificate No.: SCXK (Guangdong) 2008-0002, No. 0113738).
2. Test groups and treatment with drugs: Blank control group: treatment with 50% (v/v) PEG400 in physiological saline.
Treatment group with codeine phosphate as positive control—Codeine phosphate (Lott 20091212) is manufactured by Qinghai Pharmaceutical Co., Ltd. Before test, powdered codeine phosphate was added to 50% (v/v) PEG400 in physiological saline, to formulate a 0.47 μmol/ml solution.
Eligible male KM mice were randomly designated to a blank control group, and treatment groups with codeine phosphate as positive control and with example compounds, according to […].
The animals in each group were administered by intragastric gavage or intraperitoneal injection at a dosage of 0.2 ml/10 g of body weight, and placed in a cough inducing chamber 1 hr after administration. 1 ml of 25% concentrated aqueous ammonia was added to an atomizing cup and atomized for 15 s (at a rate of 0.15 ml/min). The coughs in 3 min were counted (during the typical cough, the mouth was opened and the head was lowered, which were accompanied by quivering of the neck and frequently a forward rushing).
Statistical analysis of data—Statistical analysis of all the data was conducted by SPSS 17.0 after the outliers were excluded by t test. Analysis of variance was performed by one-way ANOVA, multiple comparisons between the blank control group and each treatment group were carried out by Dunnett test, and the pairwise multiple comparisons between each treatment group and the codeine phosphate group were conducted by Duncan test.

Q: With O=C(O)Cc1c(O)cc(O)c2c1O[C@H](c1ccc(O)cc1)CC2=O [Example 15, Naringenin-8-acetic acid] as the compound, how does the Coughs [1] read?
A: 8.3 ± 5.8

Q: And the Cough relieving rate [1]?
A: 53.31%

Q: What about the melting point of the same compound?
A: 245 to 247 °C

Q: For C=CCc1c(O)c(O)c2c(c1O)C(=O)CC(c1ccc(O)cc1)O2 (centres unmarked) [Example 8, 6-allyl-2,3-dihydro-5,7,8-Trihydroxy-2-(4-hydroxyphenyl)chromen-4-one], which Coughs [1] is on record?
A: 10.2 ± 2.6

Q: And the Cough relieving rate [1]?
A: 42.64%

Q: What about the melting point of the same compound?
A: 95 to 100 °C

Q: What does the source list for O=C(O)Cc1c(O)c(Cl)c2c(c1O)C(=O)C[C@@H](c1ccc(O)cc1)O2 [Example 14, 8-chloro-naringenin-6-acetic acid]?
A: Coughs [1]: 9.3 ± 3.9; Cough relieving rate [1]: 47.59%; melting point: 185 to 186 °C

Q: What does the source list for O=C(O)Cc1c(O)c(Cl)c(O)c2c1O[C@H](c1ccc(O)cc1)CC2=O [Example 13, 6-chloro-naringenin-8-acetic acid]?
A: Coughs [1]: 7.4 ± 3.4; Cough relieving rate [1]: 58.43%; melting point: 185 to 186 °C

Q: For C=CCc1c(O)c(Br)c2c(c1O)C(=O)CC(c1ccc(O)cc1)O2 (centres unmarked) [Example 4, 6-allyl-8-bromo-2,3-dihydro-5,7-dihydroxy-2-(4-hydroxyphenyl)chromen-4-one], which Coughs [1] is on record?
A: 11.0 ± 4.1

Q: What about the Cough relieving rate [1] of the same compound?
A: 38.03%

Q: And the melting point?
A: 158 to 160 °C

Q: With CCCc1c(O)cc2c(c1O)C(=O)CC(c1ccc(O)cc1)O2 (centres unmarked) [Example 2, 6-n-propyl-2,3-dihydro-5,7-dihydroxy-2-(4-hydroxyphenyl)chromen-4-one] as the compound, how does the Coughs [1] read?
A: 12.4 ± 4.6

Q: What about the Cough relieving rate [1] of the same compound?
A: 30.16%

Q: What about the melting point of the same compound?
A: 173 to 175 °C

Q: Which Coughs [1] does the source give for C=CCc1c(O)c(I)c2c(c1O)C(=O)CC(c1ccc(O)cc1)O2 (centres unmarked) [Example 10, 8-iodo-2,3-dihydro-5,7-dihydroxy-2-(4-hydroxyphenyl)-6-allylchromen-4-one] here?
A: 12.2 ± 4.0

Q: And the Cough relieving rate [1]?
A: 31.24%

Q: And the melting point?
A: 218 to 220 °C

Q: Which Coughs [1] does the source give for C=CCc1c(O)c(Br)c(O)c2c1OC(c1ccc(O)cc1)CC2=O (centres unmarked) [Example 3, 8-allyl-6-bromo-2,3-dihydro-5,7-dihydroxy-2-(4-hydroxyphenyl)chromen-4-one] here?
A: 11.2 ± 6.2

Q: What about the Cough relieving rate [1] of the same compound?
A: 37.28%

Q: What about the melting point of the same compound?
A: 203 to 205 °C

Q: With O=CCc1c(O)cc2c(c1O)C(=O)C[C@@H](c1ccc(O)cc1)O2 [Example 12, Naringenin-6-acetaldehyde] as the compound, how does the Coughs [1] read?
A: 9.3 ± 4.3

Q: And the Cough relieving rate [1]?
A: 47.59%

Q: And the melting point?
A: 178 to 180 °C

Q: Which Coughs [1] does the source give for COc1ccc2c3c1O[C@H]1[C@@H](O)C=C[C@H]4[C@@H](C2)N(C)CC[C@@]341 [codeine phosphate, reference compound] here?
A: 10.8 ± 3.5

Q: What about the Cough relieving rate [1] of the same compound?
A: 39.60%

Q: With CCCc1c(O)c(Cl)c2c(c1O)C(=O)CC(c1ccc(O)cc1)O2 (centres unmarked) [Example 9, 8-Chloro-2,3-dihydro-5,7-dihydroxy-2-(4-hydroxyphenyl)-6-propylchromen-4-one] as the compound, how does the Coughs [1] read?
A: 10.7 ± 4.2

Q: What about the Cough relieving rate [1] of the same compound?
A: 39.82%

Q: And the melting point?
A: 175 to 176 °C

Q: Which Coughs [1] does the source give for C=CCc1c(O)c(Cl)c2c(c1O)C(=O)CC(c1ccc(O)cc1)O2 (centres unmarked) [Example 5, 6-allyl-8-chloro-2,3-dihydro-5,7-dihydroxy-2-(4-hydroxyphenyl)chromen-4-one] here?
A: 11.8 ± 7.3

Q: And the Cough relieving rate [1]?
A: 33.49%

Q: And the melting point?
A: 158 to 160 °C

Q: With CCCc1c(O)c(Cl)c(O)c2c1OC(c1ccc(O)cc1)CC2=O (centres unmarked) [Example 6, 6-chloro-2,3-dihydro-5,7-dihydroxy-2-(4-hydroxyphenyl)-8-propylchromen-4-one] as the compound, how does the Coughs [1] read?
A: 9.1 ± 3.9

Q: What about the Cough relieving rate [1] of the same compound?
A: 49.06%

Q: And the melting point?
A: 175 to 176 °C

Q: Which results are given for C=CCc1c(O)c(Cl)c(O)c2c1OC(c1ccc(O)cc1)CC2=O (centres unmarked) [Example 7, 8-allyl-6-chloro-2,3-dihydro-5,7-dihydroxy-2-(4-hydroxyphenyl)chromen-4-one]?
A: Coughs [1]: 10.5 ± 5.8; Cough relieving rate [1]: 40.85%; melting point: 215 to 216 °C

Q: For O=CCc1c(O)cc(O)c2c1O[C@H](c1ccc(O)cc1)CC2=O [Example 11, Naringenin-8-acetaldehyde], which Coughs [1] is on record?
A: 11.4 ± 6.5

Q: And the Cough relieving rate [1]?
A: 35.78%

Q: What about the melting point of the same compound?
A: 150 to 155 °C
